Columns and labels:
Assay in all cases: relative viability (nuclei count vs DMSO), 5 days (fraction); higher = more cells survive
NCI-H661 = tested on: NCI-H661
Outline: (§1)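 Cells from lung cancer lines were seeded into 1536-well plates and, one day later, dosed by pin tool. Treatments were either a single drug or a fixed dose of an anchor drug with five library-drug doses (not always all listed) in √10 steps. After 5 days, nuclei were stained in a one-step fixation (final 0.05% Triton X-100, 1% formaldehyde, 1 ug/ml Hoechst) and counted on 4× images, and relative viability is the treated-to-vehicle nuclei ratio, as the median of duplicate plates.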

SK-LU-1 = tested on: SK-LU-1
Outline: as §1

NCI-H2405 = tested on: NCI-H2405
Outline: as §1

NCI-H23 = tested on: NCI-H23
Outline: as §1

NCI-H596 = tested on: NCI-H596
Outline: as §1

HCC-827 = tested on: HCC-827
Outline: as §1

EKVX = tested on: EKVX
Outline: as §1

NCI-H650 = tested on: NCI-H650
Outline: as §1

HOP-62 = tested on: HOP-62
Outline: as §1

LOU-NH91 = tested on: LOU-NH91
Outline: as §1

NCI-H3122 = tested on: NCI-H3122
Outline: as §1

COR-L 105 = tested on: COR-L 105
Outline: as §1

NCI-H1975 = tested on: NCI-H1975
Outline: as §1

LCLC-103H = tested on: LCLC-103H
Outline: as §1

HARA = tested on: HARA
Outline: as §1

PC-3 [JPC-3] = tested on: PC-3 [JPC-3]
Outline: as §1

NCI-H2126 = tested on: NCI-H2126
Outline: as §1

NCI-H727 = tested on: NCI-H727
Outline: as §1

H3255 = tested on: H3255
Outline: as §1

NCI-H2228 = tested on: NCI-H2228
Outline: as §1

201T = tested on: 201T
Outline: as §1

CCNC(=O)c1noc(-c2cc(C(C)C)c(O)cc2O)c1-c1ccc(CN2CCOCC2)cc1 [Luminespib] + Cc1nc(NC(=O)N2CCC[C@H]2C(N)=O)sc1-c1ccnc(C(C)(C)C(F)(F)F)c1 [Alpelisib] (partner 2 µM)
relative viability (NCI-H661; first compound 0.002 µM): 0.628 | relative viability (NCI-H661; first compound 0.006325 µM): 0.608 | relative viability (NCI-H661; first compound 0.02 µM): 0.48 | relative viability (NCI-H661; first compound 0.06325 µM): 0.322 | relative viability (NCI-H661; first compound 0.2 µM): 0.184 | relative viability (SK-LU-1; first compound 0.002 µM): 1.33 | relative viability (SK-LU-1; first compound 0.006325 µM): 0.7 | relative viability (SK-LU-1; first compound 0.02 µM): 0.305 | relative viability (SK-LU-1; first compound 0.06325 µM): 0.18 | relative viability (SK-LU-1; first compound 0.2 µM): 0.161 | relative viability (NCI-H2405; first compound 0.002 µM): 0.968 | relative viability (NCI-H2405; first compound 0.006325 µM): 0.513 | relative viability (NCI-H2405; first compound 0.02 µM): 0.483 | relative viability (NCI-H2405; first compound 0.06325 µM): 0.19 | relative viability (NCI-H2405; first compound 0.2 µM): 0.15 | relative viability (NCI-H23; first compound 0.002 µM): 0.814 | relative viability (NCI-H23; first compound 0.006325 µM): 0.56 | relative viability (NCI-H23; first compound 0.02 µM): 0.504 | relative viability (NCI-H23; first compound 0.06325 µM): 0.141 | relative viability (NCI-H23; first compound 0.2 µM): 0.116 | relative viability (NCI-H596; first compound 0.002 µM): 0.517 | relative viability (NCI-H596; first compound 0.006325 µM): 0.45 | relative viability (NCI-H596; first compound 0.06325 µM): 0.44 | relative viability (NCI-H596; first compound 0.2 µM): 0.464 | relative viability (HCC-827; first compound 0.002 µM): 1 | relative viability (HCC-827; first compound 0.006325 µM): 0.981 | relative viability (HCC-827; first compound 0.02 µM): 0.849 | relative viability (HCC-827; first compound 0.06325 µM): 0.976 | relative viability (HCC-827; first compound 0.2 µM): 0.931 | relative viability (EKVX; first compound 0.002 µM): 0.972 | relative viability (EKVX; first compound 0.006325 µM): 0.928 | relative viability (EKVX; first compound 0.02 µM): 0.514 | relative viability (EKVX; first compound 0.06325 µM): 1.07 | relative viability (EKVX; first compound 0.2 µM): 0.315 | relative viability (NCI-H650; first compound 0.002 µM): 1.24 | relative viability (NCI-H650; first compound 0.006325 µM): 1.04 | relative viability (NCI-H650; first compound 0.02 µM): 0.994 | relative viability (NCI-H650; first compound 0.06325 µM): 0.193 | relative viability (NCI-H650; first compound 0.2 µM): 0.145 | relative viability (HOP-62; first compound 0.002 µM): 1.17 | relative viability (HOP-62; first compound 0.006325 µM): 0.79 | relative viability (HOP-62; first compound 0.02 µM): 0.603 | relative viability (HOP-62; first compound 0.06325 µM): 0.788 | relative viability (HOP-62; first compound 0.2 µM): 0.927 | relative viability (LOU-NH91; first compound 0.002 µM): 0.717 | relative viability (LOU-NH91; first compound 0.006325 µM): 0.646 | relative viability (LOU-NH91; first compound 0.02 µM): 0.543 | relative viability (LOU-NH91; first compound 0.06325 µM): 0.43 | relative viability (LOU-NH91; first compound 0.2 µM): 0.381 | relative viability (NCI-H3122; first compound 0.002 µM): 0.756 | relative viability (NCI-H3122; first compound 0.006325 µM): 0.672 | relative viability (NCI-H3122; first compound 0.02 µM): 0.648 | relative viability (NCI-H3122; first compound 0.06325 µM): 0.179 | relative viability (NCI-H3122; first compound 0.2 µM): 0.149 | relative viability (COR-L 105; first compound 0.002 µM): 1.04 | relative viability (COR-L 105; first compound 0.006325 µM): 0.96 | relative viability (COR-L 105; first compound 0.02 µM): 1.35 | relative viability (COR-L 105; first compound 0.06325 µM): 0.343 | relative viability (COR-L 105; first compound 0.2 µM): 0.181 | relative viability (NCI-H1975; first compound 0.002 µM): 0.667 | relative viability (NCI-H1975; first compound 0.006325 µM): 0.512 | relative viability (NCI-H1975; first compound 0.02 µM): 0.233 | relative viability (NCI-H1975; first compound 0.06325 µM): 0.137 | relative viability (NCI-H1975; first compound 0.2 µM): 0.126 | relative viability (LCLC-103H; first compound 0.002 µM): 0.969 | relative viability (LCLC-103H; first compound 0.006325 µM): 1.01 | relative viability (LCLC-103H; first compound 0.02 µM): 0.85 | relative viability (LCLC-103H; first compound 0.06325 µM): 0.928 | relative viability (LCLC-103H; first compound 0.2 µM): 1 | relative viability (HARA; first compound 0.002 µM): 0.835 | relative viability (HARA; first compound 0.006325 µM): 0.676 | relative viability (HARA; first compound 0.02 µM): 0.85 | relative viability (HARA; first compound 0.06325 µM): 0.759 | relative viability (HARA; first compound 0.2 µM): 0.103 | relative viability (PC-3 [JPC-3]; first compound 0.002 µM): 1.09 | relative viability (PC-3 [JPC-3]; first compound 0.006325 µM): 0.908 | relative viability (PC-3 [JPC-3]; first compound 0.02 µM): 0.871 | relative viability (PC-3 [JPC-3]; first compound 0.06325 µM): 1.08 | relative viability (PC-3 [JPC-3]; first compound 0.2 µM): 0.957 | relative viability (NCI-H2126; first compound 0.002 µM): 0.739 | relative viability (NCI-H2126; first compound 0.006325 µM): 0.727 | relative viability (NCI-H2126; first compound 0.02 µM): 0.538 | relative viability (NCI-H2126; first compound 0.06325 µM): 0.748 | relative viability (NCI-H2126; first compound 0.2 µM): 0.838 | relative viability (NCI-H727; first compound 0.002 µM): 0.553 | relative viability (NCI-H727; first compound 0.006325 µM): 0.584 | relative viability (NCI-H727; first compound 0.02 µM): 0.504 | relative viability (NCI-H727; first compound 0.06325 µM): 0.234 | relative viability (NCI-H727; first compound 0.2 µM): 0.228 | relative viability (H3255; first compound 0.002 µM): 0.775 | relative viability (H3255; first compound 0.006325 µM): 0.636 | relative viability (H3255; first compound 0.02 µM): 0.508 | relative viability (H3255; first compound 0.06325 µM): 0.586 | relative viability (H3255; first compound 0.2 µM): 0.195 | relative viability (NCI-H2228; first compound 0.002 µM): 0.808 | relative viability (NCI-H2228; first compound 0.006325 µM): 0.595 | relative viability (NCI-H2228; first compound 0.02 µM): 0.156 | relative viability (NCI-H2228; first compound 0.06325 µM): 0.142 | relative viability (NCI-H2228; first compound 0.2 µM): 0.136 | relative viability (201T; first compound 0.002 µM): 0.965 | relative viability (201T; first compound 0.006325 µM): 1.01 | relative viability (201T; first compound 0.02 µM): 0.96 | relative viability (201T; first compound 0.06325 µM): 1.04 | relative viability (201T; first compound 0.2 µM): 1.03

Reference: the supplement of paper PMC10307832
